# Reference: PMC7058083, “Structural basis of ligand binding modes at the human formyl peptide receptor 2” (Nature Communications, 2020)
# Assays:
# [1] = tested on: FPR2; design: method as in 3 sources, ref 4 = [4]; PMID 24285541; doi:10.1074/jbc.M113.509216; 4. He HQ Troksa EL Caltabiano G Pardo L Ye RD Structural determinants for the interaction of formyl peptide receptor 2 with peptide ligands J. Biol. Chem. 2014 289 2295 2306 10.1074/jbc.M113.509216 24 ||| ref 34 = [34]; PMID 11818455; 34. Bae YS Kim Y Park JC Suh PG Ryu SH The synthetic chemoattractant peptide, Trp-Lys-Tyr-Met-Val-D-Met, enhances monocyte survival via PKC-dependent Akt activation J. Leukoc. Biol. 2002 71 329 338 11 ||| ref 35 = [35]; PMID 11285256; doi:10.1074/jbc.M007769200; 35. Christophe T The synthetic peptide Trp-Lys-Tyr-Met-Val-Met-NH 2 specifically activates neutrophils through FPRL1/lipoxin A 4 receptors and is an agonist for the orphan monocyte-expressed chemoattr; conditions: cited from earlier work
# [2] = tested on: FPR2; design: method as in PMID 24285541; conditions: cited from earlier work
# Experimental: To investigate the binding mode of formyl peptide in FPR2, molecular docking of this tripeptide to the FPR2 crystal structure was performed (Supplementary Data 2). […] It was also reported that the polar residue D281^7.32 was crucial for the interaction of FPR2 with certain formyl peptides. It was proposed that this negatively charged residue in FPR2 was repulsive with the C-terminal COO− group of fMLF and the negatively charged glutamate residue in fMLFE, but forms a stable interaction with the p ...
# [3] = tested on: FPR2; conditions: cited from earlier work
# Text: This movement breaks the hydrogen bonds between the C-terminal NH2- group of the peptide and the receptor residues D106^3.33 and R201^5.38, and disrupts the polar interaction network establishe ...
# [4] = tested on: FPR2 (wild type and mutant V113A); assay: cAMP inhibition assay, HEK293 cells, 5 μM forskolin; format: cell-based, human
# Text: contribute to the effect of mutations on ligand binding and receptor signaling in addition to the direct disruption of receptor-ligand interaction.
# To make the above clear, the statement “The effect of these mutations on ligand binding and receptor signaling could be explained by direct disruption of the receptor-ligand interaction, destabilization of ligand-binding pocket conformation, and/or impairment of global conformational rearrangement required for receptor activation” has been added to the […]
# 3) The authors use the crystal structures as an opportunity to dock other ligands with the their experimentally determined structure of FPR2. With the exception of LXA4, the docking of formyl peptides with mutagenesis experiments produce insightful results for fMLFK. For LXA4, more work is necessary to justify the docking pose. Otherwise, it is my opinion that it should […]
# — We appreciated the reviewer’s comment. Functional assays for LXA4 are challenging due to the poor ability of this ligand to trigger calcium mobilization and IP accumulation. To verify the predicted binding mode of LXA4 in FPR2, we have performed additional assays by […]
# fold while having minimal effect on the LXA4-induced cAMP reduction. […]
# model of LXA4. […]
# was detected and the concentrations were shown. […]
# 5) How was the omit map calculated to remove any bias for the agonist in SFig. […]
compound,measurement,setting,value
N-formyl-Met-Leu-Phe [fMLF],lower potency in inducing Ca2+ mobilization,[1]; FPR2 compared to FPR1,2000 fold
same,lower binding affinity,[2]; FPR2 compared to FPR1,over 400 fold
WKYMVM-NH2,reduction in EC50 in stimulating phosphoinositide hydrolysis relative to WKYMVm,[3],over 100 fold
"CCCCC[C@H](O)/C=C/C=C\C=C\C=C\[C@@H](O)[C@@H](O)CCCC(=O)O [LXA4, lipoxin A4]",effect of mutation on ligand-induced cAMP reduction,"[4]; FPR2 V113A, 30 min",minimal
same,change in intracellular cAMP,"[4]; wild-type FPR2, 30 min",measurable changes
fMLFII [formyl pentapeptide agonist],agonist potency over fMLF at FPR2,[1],increased
same,binding affinity over fMLF at FPR2,[2],increased
